Results on two compounds are retold here after publication PMC3969020 (Biochemistry, 2014).

Holding throughout (format): biochemical
In experiment [1] the target is T1, Horse liver alcohol dehydrogenase (ADH), E isoenzyme (Equus caballus, UniProt P00327). As to the kind of experiment: initial velocity and product inhibition kinetics.
The target of experiment [2] is T2, Horse liver alcohol dehydrogenase (ADH), E isoenzyme (Equus caballus, UniProt P00327, V208A). Kind of experiment: X-ray crystal structure, […] Å.
T2 sequence (P00327 2-375 V208A): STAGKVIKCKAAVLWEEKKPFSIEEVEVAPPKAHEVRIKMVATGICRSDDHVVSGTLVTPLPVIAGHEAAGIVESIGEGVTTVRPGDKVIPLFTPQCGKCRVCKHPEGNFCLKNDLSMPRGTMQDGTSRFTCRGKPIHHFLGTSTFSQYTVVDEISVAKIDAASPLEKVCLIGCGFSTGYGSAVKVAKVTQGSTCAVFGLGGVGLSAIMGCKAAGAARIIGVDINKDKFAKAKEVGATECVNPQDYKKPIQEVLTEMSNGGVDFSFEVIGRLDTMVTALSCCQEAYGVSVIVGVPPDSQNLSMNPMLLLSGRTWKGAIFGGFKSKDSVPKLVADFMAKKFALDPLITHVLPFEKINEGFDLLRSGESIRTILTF
Experiment [3] concerns the target T2, Horse liver alcohol dehydrogenase (ADH), E isoenzyme. Kind of experiment: product inhibition against NAD+.
The target in experiment [4] is T1, Horse liver alcohol dehydrogenase (ADH), E isoenzyme. Kind of experiment: product inhibition against NAD+.

Each structure is given as a SMILES string.

T1 sequence (P00327 2-375): as the sequence (P00327 2-375 V208A) above, with A207V counted along it

With `NC(=O)c1ccc[n+]([C@@H]2O[C@H](COP(=O)([O-])OP(=O)(O)OC[C@H]3O[C@@H](n4cnc5c(N)ncnc54)[C@H](O)[C@@H]3O)[C@@H](O)[C@H]2O)c1` [NAD^+], the values for the Ki in experiment [1] and in experiment [2] were 20 ± 5 µM and 59 ± 5 µM, respectively.

As to `NC(=O)C1=CN([C@@H]2O[C@H](COP(=O)(O)OP(=O)(O)OC[C@H]3O[C@@H](n4cnc5c(N)ncnc54)[C@H](O)[C@@H]3O)[C@@H](O)[C@H]2O)C=CC1` [NADH], the inhibition constant (Ki) (usually the equilibrium dissociation constant of an inhibitor or competing ligand from its target) in experiment [3] turned out to be 0.39 ± 0.01 µM; in experiment [4] it was 0.31 ± 0.02 µM.
